The results in this text go back to patent US10519134B2, “Pyrazole compounds and methods of making and using same” (Lundbeck La Jolla Research Center, Inc., priority 2015, dated 2019).

One experiment has as its target T1, MAGL (Mus musculus, UniProt O35678).
T1 construct: Proteomes (mouse brain membrane fraction or cell lysates); from tissue; host or cells: mouse brain membrane fraction (or cell lysates)
T1 sequence (O35678 1-303): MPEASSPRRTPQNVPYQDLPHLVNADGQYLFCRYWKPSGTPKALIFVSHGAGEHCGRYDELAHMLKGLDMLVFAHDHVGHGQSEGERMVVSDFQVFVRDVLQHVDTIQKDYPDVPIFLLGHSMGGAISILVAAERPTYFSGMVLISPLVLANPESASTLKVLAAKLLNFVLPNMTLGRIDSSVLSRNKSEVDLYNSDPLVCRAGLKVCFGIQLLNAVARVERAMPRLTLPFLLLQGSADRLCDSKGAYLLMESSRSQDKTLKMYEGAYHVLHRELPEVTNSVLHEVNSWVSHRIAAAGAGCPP
Put plainly: In vitro competitive activity-based protein profiling (mouse), MAGL gel band. Type of experiment: biochemical. The following applies: for IC50: mouse; for inhibition at 1 µM: read-out: MAGL % inh. 1 μM. Here is the method: (§1) In Vitro Competitive Activity-Based Protein Profiling (Mouse).
(§2) Proteomes (mouse brain membrane fraction or cell lysates) (50 μL, 1.0 mg/mL total protein concentration) were preincubated with varying concentrations of inhibitors at 37° C. After 30 min, FP-Rh or HT-01 (1.0 μL, 50 μM in DMSO) was added and the mixture was incubated for another 30 min at 37° C. Reactions were quenched with SDS loading buffer (15 μL—4×) and run on SDS-PAGE. Following gel imaging, serine hydrolase activity was determined by measuring fluorescent intensity of gel bands corresponding to MAGL, ABHD6, and FAAH, using ImageJ 1.43u software.

For a further experiment, the target named is T2, FAAH (Mus musculus, UniProt O08914).
T2 construct: Proteomes (mouse brain membrane fraction or cell lysates); from tissue; host or cells: mouse brain membrane fraction (or cell lysates)
T2 sequence (O08914 1-579): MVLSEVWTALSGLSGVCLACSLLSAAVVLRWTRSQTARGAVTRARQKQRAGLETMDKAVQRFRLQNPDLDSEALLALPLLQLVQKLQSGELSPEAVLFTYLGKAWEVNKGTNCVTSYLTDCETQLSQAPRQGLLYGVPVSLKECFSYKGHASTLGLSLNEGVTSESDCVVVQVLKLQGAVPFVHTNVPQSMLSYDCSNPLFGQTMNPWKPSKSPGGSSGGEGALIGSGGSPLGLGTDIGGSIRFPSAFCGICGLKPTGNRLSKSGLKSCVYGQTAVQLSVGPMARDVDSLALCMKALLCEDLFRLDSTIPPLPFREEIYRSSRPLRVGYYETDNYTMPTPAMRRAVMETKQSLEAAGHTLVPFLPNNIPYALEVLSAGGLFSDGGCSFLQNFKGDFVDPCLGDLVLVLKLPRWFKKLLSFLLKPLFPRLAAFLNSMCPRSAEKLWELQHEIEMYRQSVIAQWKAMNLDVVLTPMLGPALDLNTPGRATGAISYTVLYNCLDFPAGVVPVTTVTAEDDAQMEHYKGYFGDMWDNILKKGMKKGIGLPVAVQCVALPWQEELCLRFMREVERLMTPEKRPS
Put plainly: In vitro competitive activity-based protein profiling (mouse), FAAH gel band. It is filed as biochemical. The note with it: for IC50: mouse; for inhibition at 1 µM: read-out: FAAH % inh. 1 μM. Here is the method:
as §1, §2

Where only a bound is given, the exact number is not on record here.

In general, IC50 refers to the concentration that gives 50% inhibition. On to `CC(=O)N(C)c1ccn(C(=O)N2CCN(Cc3ccc(C(F)(F)F)cc3N3CCCC3)CC2)n1` [Example 2, N-methyl-N-(1-(4-(2-(pyrrolidin-1-yl)-4-(trifluoromethyl)benzyl)piperazine-1-carbonyl)-1H-pyrazol-3-yl)acetamide], for which the IC50 at MAGL is 100 to 1000 nM; on FAAH, 1000 to 10000 nM. Moreover, the inhibition at 1 µM on MAGL is not below 75%; on FAAH it was 0 to 25%.

`CC(=O)Nc1ccn(C(=O)N2CCN(Cc3ccc(Cl)cc3N3CCC(F)CC3)CC2)n1` [Example 7, N-(1-(4-(4-chloro-2-(4-fluoropiperidin-1-yl)benzyl)piperazine-1-carbonyl)-1H-pyrazol-3-yl)acetamide]: at MAGL, the IC50 is not above 100 nM and the inhibition at 1 µM is not below 75%. Besides, on FAAH, the IC50 fell in the range of 1000 to 10000 nM and the inhibition at 1 µM fell in the range of 0 to 25%.

Take `CC(=O)Nc1ccn(C(=O)N2CCC3(CCCN3Cc3ccc(C(F)(F)F)cc3N3CCCC3)CC2)n1` [Example 8, N-(1-(1-(2-(pyrrolidin-1-yl)-4-(trifluoromethyl)benzyl)-1,8-diazaspiro[4.5]decane-8-carbonyl)-1H-pyrazol-3-yl)acetamide]: at MAGL, the IC50 is not above 100 nM and the inhibition at 1 µM was not below 75%. Further, on FAAH, the IC50 lay within 1000 to 10000 nM and the inhibition at 1 µM lay in the range of 0 to 25%.

With `CC(=O)Nc1ccn(C(=O)N2CCC3(CCCN3Cc3ccc(Cl)cc3N3CCC(F)(F)CC3)CC2)n1` [Example 11, N-(1-(1-(4-chloro-2-(4,4-difluoropiperidin-1-yl)benzyl)-1,8-diazaspiro[4.5]decane-8-carbonyl)-1H-pyrazol-3-yl)acetamide], on MAGL, the IC50 lay within 100 to 1000 nM and the inhibition at 1 µM was not below 75%. At FAAH, the IC50 was 1000 to 10000 nM and the inhibition at 1 µM was in the range of 0 to 25%.

Turning to `CC(=O)Nc1ccn(C(=O)N2CCC3(CCCN3Cc3ccc(Cl)cc3N3CCN(C4CC4)CC3)CC2)n1` [Example 13, N-(1-(1-(4-chloro-2-(4-cyclopropylpiperazin-1-yl)benzyl)-1,8-diazaspiro[4.5]decane-8-carbonyl)-1H-pyrazol-3-yl)acetamide], on MAGL, the half-inhibitory concentration (IC50) was 100 to 1000 nM and the inhibition at 1 µM was not below 75%. In addition, at FAAH, the IC50 lay in the range of 1000 to 10000 nM and the inhibition at 1 µM fell in the range of 0 to 25%.

As to `CCN1CCN(c2cc(Cl)ccc2CN2CCCC23CCN(C(=O)n2ccc(NC(C)=O)n2)CC3)CC1` [Example 15, N-(1-(1-(4-chloro-2-(4-ethylpiperazin-1-yl)benzyl)-1,8-diazaspiro[4.5]decane-8-carbonyl)-1H-pyrazol-3-yl)acetamide], at MAGL, the IC50 was 100 to 1000 nM and the inhibition at 1 µM was not below 75%. Also, on FAAH, the IC50 lay in the range of 1000 to 10000 nM and the inhibition at 1 µM lay in the range of 0 to 25%.

Regarding `CC(=O)Nc1ccn(C(=O)N2CCC3(CCCN3Cc3ccc(Cl)cc3N3CCOCC3)CC2)n1` [Example 16, N-(1-(1-(4-chloro-2-morpholinobenzyl)-1,8-diazaspiro[4.5]decane-8-carbonyl)-1H-pyrazol-3-yl)acetamide], the results for the IC50 at MAGL and on FAAH were 100 to 1000 nM and 1000 to 10000 nM, respectively. Moreover, the figures for the inhibition at 1 µM on MAGL and on FAAH were not below 75% and 0 to 25%, respectively.

As for `CC(=O)Nc1ccn(C(=O)N2CCC3(CCCN3Cc3ccc(Cl)cc3N3CC4COCC4C3)CC2)n1` (centres unmarked) [Example 17, N-(1-(1-(4-chloro-2-(dihydro-1H-furo[3,4-c]pyrrol-5(3H,6H,6aH)-yl)benzyl)-1,8-diazaspiro[4.5]decane-8-carbonyl)-1H-pyrazol-3-yl)acetamide], at MAGL, the IC50 was not above 100 nM and the inhibition at 1 µM is not below 75%. On FAAH, the IC50 fell in the range of 1000 to 10000 nM and the inhibition at 1 µM lay in the range of 0 to 25%.

In the case of `CC(=O)Nc1ccn(C(=O)N2CCC3(CCCN3Cc3ccc(C(F)(F)F)cc3N3CCCCC3)CC2)n1` [Example 19, N-(1-(1-(2-(piperidin-1-yl)-4-(trifluoromethyl)benzyl)-1,8-diazaspiro[4.5]decane-8-carbonyl)-1H-pyrazol-3-yl)acetamide], the IC50 at MAGL is not above 100 nM; on FAAH, 1000 to 10000 nM. Further, the inhibition at 1 µM was not below 75% on MAGL and 0 to 25% on FAAH.

As to `CC(=O)Nc1ccn(C(=O)N2CCC3(CCCN3Cc3ccc(C(F)(F)F)cc3N3CCN(S(C)(=O)=O)CC3)CC2)n1` [Example 21, N-(1-(1-(2-(4-(methylsulfonyl)piperazin-1-yl)-4-(trifluoromethyl)benzyl)-1,8-diazaspiro[4.5]decane-8-carbonyl)-1H-pyrazol-3-yl)acetamide], the IC50 at MAGL lay in the range of 100 to 1000 nM; on FAAH it was 1000 to 10000 nM. Also, the inhibition at 1 µM at MAGL was not below 75%; on FAAH, 0 to 25%.

As for `CC(=O)Nc1ccn(C(=O)N2CCC3(CCCN3Cc3ccc(C(F)(F)F)cc3N3CCN(C(C)=O)CC3)CC2)n1` [Example 22, N-(1-(1-(2-(4-acetylpiperazin-1-yl)-4-(trifluoromethyl)benzyl)-1,8-diazaspiro[4.5]decane-8-carbonyl)-1H-pyrazol-3-yl)acetamide], on MAGL, the IC50 fell in the range of 100 to 1000 nM and the inhibition at 1 µM was not below 75%. In addition, on FAAH, the IC50 was in the range of 1000 to 10000 nM and the inhibition at 1 µM lay within 0 to 25%.

In the case of `CC(=O)Nc1ccn(C(=O)N2CCC3(CCCN3Cc3ccc(C)c(C(F)(F)F)c3)CC2)n1` [Example 23, N-(1-(1-(4-methyl-3-(trifluoromethyl)benzyl)-1,8-diazaspiro[4.5]decane-8-carbonyl)-1H-pyrazol-3-yl)acetamide], the IC50 is not above 100 nM at MAGL and 1000 to 10000 nM at FAAH. The results for the inhibition at 1 µM at MAGL and at FAAH were not below 75% and 0 to 25%, respectively.

On to `CC(=O)Nc1ccn(C(=O)N2CCC3(CCCN3Cc3ccc(C(F)(F)F)c(Cl)c3)CC2)n1` [Example 24, N-(1-(1-(3-chloro-4-(trifluoromethyl)benzyl)-1,8-diazaspiro[4.5]decane-8-carbonyl)-1H-pyrazol-3-yl)acetamide], for which the IC50 is not above 100 nM on MAGL and 1000 to 10000 nM on FAAH. Moreover, the inhibition at 1 µM on MAGL was not below 75%; at FAAH, 0 to 25%.

Regarding `CC(=O)Nc1ccn(C(=O)N2CCC3(CCCN3Cc3ccc(Cl)c(C(F)(F)F)c3)CC2)n1` [Example 25, N-(1-(1-(4-chloro-3-(trifluoromethyl)benzyl)-1,8-diazaspiro[4.5]decane-8-carbonyl)-1H-pyrazol-3-yl)acetamide], the inhibition at 1 µM on MAGL is not below 75%; at FAAH it was 25 to 50%.

For `CC(=O)Nc1ccn(C(=O)N2CCC3(CCCN3Cc3ccc(C(F)(F)F)cc3N3CCC4(C3)CN(S(C)(=O)=O)C4)CC2)n1` [Example 27, N-(1-(1-(2-(2-(methylsulfonyl)-2,6-diazaspiro[3.4]octan-6-yl)-4-(trifluoromethyl)benzyl)-1,8-diazaspiro[4.5]decane-8-carbonyl)-1H-pyrazol-3-yl)acetamide], at MAGL, the IC50 is not above 100 nM and the inhibition at 1 µM was not below 75%. For the same molecule, on FAAH, the IC50 fell in the range of 1000 to 10000 nM and the inhibition at 1 µM fell in the range of 0 to 25%.

`CS(=O)(=O)Nc1ccn(C(=O)N2CCN(Cc3ccc(C(F)(F)F)c(C4CCN(CC(=O)O)CC4)c3)CC2)n1` [Example 119, 2-(4-(5-((4-(3-(methylsulfonamido)-1H-pyrazole-1-carbonyl)piperazin-1-yl)methyl)-2-(trifluoromethyl)phenyl)piperidin-1-yl)acetic Acid] gave an IC50 at MAGL not above 100 nM.
